How the values were obtained:
[1] = tested on: skin wounds; test: Mouse model of skin wound healing (full-thickness excisional wounds); type: in vivo; conditions: for vessel density (CD31 positive vessels) / wound perfusion (laser Doppler): topical 1 μg/wound; for wound closure / expression of targets TGFB2 and SMAD2 in wound: topical 1 μg/wound every second day; for wound closure: 7 days; for wound perfusion (laser Doppler): 5 days post wounds
Protocol: All experiments involving mice were performed in accordance with the guidance and the operation of Animals (Scientific Procedures) Act 1986 and prior approval of the UK Home Office and the University of Edinburgh ethic committee. Skin wound healing protocol has been performed as described before^54-56. CD-1 female mice (7-9-week-old) (n=8 per group) were randomly assigned a treatment group and anaesthetized with isofluorane. Two full-thickness excisional wounds were made to the shaved dorsal skin. Full-thickness excisional wounds were made by picking up a fold of skin and using a sterile, disposable 5-mm biopsy punch (Kai Industries), resulting in generation of one wound on each side of the midline. Control oligonucleotides (scramble sequence), miR-148b mimic, Cy3-labeled miR-148b mimic or anti-miR-148b or SMAD2 siRNA (1 μg/wound) were delivered topically by pipette into the wound cavity (10 μl in a vehicle of 30% Pluronic F-127 gel [is liquid at 4° C. but solidifies at body temperature]; Sigma Aldrich). Mimics were initially delivered after 3 days, whereas anti-miR and siRNA were delivered immediately after wounding. The treatment was performed every second day for 7 days. Wounds were photographed using an Olympus camera on days 0, 2, 4, 6, and 7 after wounding. Wound areas were calculated as previously described^54, 55. To this aim, two perpendicular diameters of the wound were measured by using a Vernier caliper and wound area was calculated using a standard formula for the area of an ellipse (semi-major diameter X semi-minor diameter X Pi). The superficial blood flow of the wounds was sequentially analysed by colour laser Doppler (Colour laser Doppler, Moor, UK), and the ratio of blood flow between the mimic or anti-miR or siRNA treated and the control treated wounds was calculated. Wound size and Doppler analysis was performed in blinded fashion.
Wounds were harvested, prepared, and analysed essentially as previously described^54-56. At days 5 or 7 post-wounding, wounds were harvested and fixed in 10% buffered formalin (16 h at 4° C., Sigma) for embedding in paraffin. Sectioning was done through the wound beyond the midpoint and wound centres as identified by staining with Haematoxylin and Eosin (Sigma). Sections were deparaffinised, rehydrated and stained with rat anti-mouse polyclonal CD31 (Abcam, ab28364, 1:50), α-SMA (Sigma, A2547, 1:100) rabbit anti-mouse FSP-1 (Abcam, ab41532, 1:50), and SLUG (Abcam, […], 1:200); all antibodies overnight at 4° C.
Zeiss LSM 780 Confocal Microscope (Zeiss). Vascular density in wounds was counted after staining for CD31 and α-SMA. Ten fields per section/animal (n=8 animal; 400× magnification) were randomly examined and averaged to analyse the number of CD31-positive blood vessels in the wound edges. Images collection was performed manually. Image analysis was performed using Image J software as previously reported in^54. Vascular density is expressed per square millimetre. EndMT of ECs was assessed by FSP-1 and SLUG staining combined with CD31 staining. CD31-FSP-1 and CD31-SLUG double positive vessels are expressed as percentage of positive vessels. For analysis of fibrosis: the slides of the staining were examined and photomicrographed in a blinded fashion using a light microscope (Axioscope 2; Zeiss). Six images per slide were captured at 400× magnification for both histological staining. The colour deconvolution ImageJ software was used to evaluate the percentage of red staining which indicate the presence of collagen fibres in the tissue. The morphometric analysis corresponding to the red colours was measured as the percentage of total pixels in each image, using the Threshold (Image J software).

[2] = tested on: HUVECs; test: ECIS migration assay; type: cell-based, human; conditions: transfected 48 hrs (mimic 25 nM, anti-miR 75 mM)
Protocol: Confluent HUVECs were transfected with controls or miR-148b mimic or anti-miR-148b and, plated on the ECIS chip array (8W1E or 8W10E). The migration speed was calculated in μm/h, capacitance of the plasma membrane is Cm (μF/cm^2) as reported in Giaever, I, and Keese, C R (1991)^29.

[3] = tested on: HUVECs; test: BrdU incorporation assay (EC proliferation); type: cell-based, human; conditions: transfected 48 hrs (mimic 25 nM, anti-miR 75 mM)
Protocol: (§1) Lipofectamine RNAiMAX (Thermo Fisher Scientific) was used to transfect HUVECs with miR-148b mimic, anti-miR-148b and mimic or anti-miR control (25 nM and […], respectively final concentration) or with siRNA targeting SMAD2 (20 nM final concentration), according to the manufacturer's instructions. jetPEI-HUVECs (Polyplus) was used to transfect HUVECs with DNA plasmids. The following functional assays were performed: BrdU incorporation assay using Cell Proliferation colorimetric assay (Roche); Matrigel assay with HUVECs was performed as previously described using BD Matrigel Basement Membrane Matrix (BD Biosciences)^53.

[4] = tested on: HUVECs; test: Matrigel assay (tube formation); type: cell-based, human; conditions: transfected 48 hrs (mimic 25 nM, anti-miR 75 mM)
Protocol: as §1

Molecule | collagen deposition (PicroSirius Red) ([1]; day 7 after wounding) | CD31-FSP-1 or CD31-SLUG double-positive vessels in wound edge ([1]; delivered immediately after wounding and every two days, day 7) | skin vessels that demonstrated mesenchymal transition (EndMT) ([1]; following delivery to the wounds) | vessel density (CD31 positive vessels) [1] | wound closure [1] | expression of targets TGFB2 and SMAD2 in wound ([1]; day 7 after wounding) | wound perfusion (laser Doppler) [1] | total number of FSP-1 positive cells in wounds ([1]; vs control oligonucleotide-treated wounds, day 7) | EC migration (migration speed) [2] | proliferation of HUVECs (BrdU incorporation) [3] | tube formation / tubulogenesis in Matrigel assay (total tubules length) [4] | miR-148b expression in wound ([1]; topical, starting 3 days after wounding, day 7)
anti-miR-148b: miR-148b inhibitor oligonucleotide; suitable inhibitor: hsa-miR-148b-3p miRCURY LNA inhibitor, CAAAGTTCTGTGATGCACTG (SEQ ID NO: 6) (commercial miRCURY LNA inhibitor, LNA positions not given here) | did not detect any increase | comprised of CD31-FSP-1 or CD31-SLUG double-positive vessels | around 20% | without effecting | markedly attenuated | increased | without effecting | increase | did not cause a change | decreased | did not cause a change | –
miR-148b mimic: miR-148b mimic oligonucleotide; in a particular embodiment has SEQ ID NO: 1, the human precursor miR-148b sequence (nucleic acid, listed as RNA, chemistry not given here) CAAGCACGAUUAGCAUUUGAGGUGAAGUUCUGUUAUACACUCAGGCUGUGGCUCUCUGAAAGUCAGUGCAUCACAGAACUUUGUCUCGAAAGCUUUCUA | – | – | – | significant increase | accelerated | decreasing | significant increase | – | significantly elevated | significantly increased | significantly elevated | increased

From patent publication US20220193111A1, “Method of Treatment” (The University Court of the University of Edinburgh, priority 2018, published 2022)
